From patent US11207322B2, “Method and composition related to combination therapy for addiction” (Board of Regents, The University of Texas System, priority 2017, dated 2021)
“Also recorded” adds a separate entry of the source.

How the values were obtained:
[1] = tested on: 5-HT2C receptors; conditions: in vivo; cited from earlier work
[2] = tested on: rhesus monkeys responding for 0.032 mg/kg/inf cocaine; test: cocaine self-administration under a progressive ratio (PR) schedule; type: in vivo, rhesus monkey; conditions: for effect on PR responding for cocaine (reinforcing effectiveness of cocaine): 0.032 mg/kg/inf cocaine, 4 rhesus monkeys (2 male, 2 female), acute
[3] = tested on: rhesus monkeys, responding reinstated by cocaine; test: cocaine-primed reinstatement of extinguished responding for cocaine; type: in vivo, rhesus monkey; conditions: 0.32 mg/kg cocaine prime; 4 rhesus monkeys
Description: Reinstatement of responding for cocaine.
Experimental design. Monkeys will respond for 0.032 mg/kg/inf cocaine under a FR30:TO180-sec schedule of reinforcement during daily 90-min sessions. During extinction, all stimulus lights will be extinguished with responding being recorded but having no scheduled consequence. During reinstatement tests, the drug-associated stimuli (i.e., the green and red stimulus lights) will be presented according to an FR30:TO180-sec schedule but no infusions will be delivered. Priming infusions of cocaine or saline will be injected directly into the vascular access port (followed by a 5-ml saline flush) 5 min before the start of the session.
The acute effects of lorcaserin (0.1-3.2 mg/kg; SC; 15 min PT) and buspirone (0.1-3.2 mg/kg; SC; 15 min PT) alone will be studied prior to evaluating mixtures. Because the nature of drug-drug interactions can vary depending upon the composition of the mixture, lorcaserin and buspirone will be evaluated over at least three fixed-dose pairs of at least three fixed-ratios (i.e., 3:1, 1:1, and 1:3), using the strategy described above. Mixtures will be based on the effects of lorcaserin and buspirone alone and customized to individual monkeys. […] Additional fixed-ratios mixtures (10:1 or 1:10) will be evaluated if significant, non-additive interactions are observed with either 3:1 or 1:3 ratios, respectively. […]

[4] = tested on: rhesus monkeys responding for 0.032 mg/kg/inf cocaine; conditions: cited from earlier work; for effectiveness on cocaine self-administration with daily dosing: administered daily for 10-14 days
[5] = molecular target: T1, DA D3 receptor (Homo sapiens, UniProt P35462); conditions: cited from earlier work
[6] = tested on: humans; conditions: cited from earlier work
[7] = tested on: humans; conditions: cited from earlier work; remark: listed apart in the source
[8] = molecular target: T1, DA D3 receptor; conditions: in vivo; cited from earlier work
[9] = tested on: rhesus and cynomolgus monkeys; conditions: in vivo; cited from earlier work
[10] = e.g., valvulopathies; cited from earlier work
[11] = molecular target: T2, 5-HT2C over 5-HT2A receptors (Homo sapiens, UniProt P28335); conditions: cited from earlier work
T2 construct: expressed in transfected cells
T2 sequence (P28335 33-458): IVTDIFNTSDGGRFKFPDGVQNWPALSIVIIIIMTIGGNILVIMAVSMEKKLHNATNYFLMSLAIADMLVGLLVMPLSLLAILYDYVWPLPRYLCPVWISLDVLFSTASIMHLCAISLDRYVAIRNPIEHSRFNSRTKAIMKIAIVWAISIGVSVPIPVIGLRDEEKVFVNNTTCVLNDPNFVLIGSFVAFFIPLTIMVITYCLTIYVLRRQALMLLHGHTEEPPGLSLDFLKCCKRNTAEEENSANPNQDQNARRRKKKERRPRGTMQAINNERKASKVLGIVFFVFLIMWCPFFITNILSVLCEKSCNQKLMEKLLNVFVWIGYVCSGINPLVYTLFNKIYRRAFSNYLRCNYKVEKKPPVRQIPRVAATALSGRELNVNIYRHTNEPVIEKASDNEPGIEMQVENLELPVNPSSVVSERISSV

[12] = molecular target: T3, 5-HT2C over 5-HT2B receptors (Homo sapiens, UniProt P28335); conditions: cited from earlier work
T3 construct: expressed in transfected cells
T3 sequence (P28335 33-458): T2 sequence (P28335 33-458)

[13] = tested on: obese adults; conditions: in vivo; cited from earlier work
[14] = tested on: recreational drug users; conditions: 20-60 mg; cited from earlier work
[15] = tested on: 5-HT2A receptor; conditions: doses comparable to those required to reduce body weight in rats; cited from earlier work
[16] = functional assays, transfected cells

T1 sequence (P35462 whole entry): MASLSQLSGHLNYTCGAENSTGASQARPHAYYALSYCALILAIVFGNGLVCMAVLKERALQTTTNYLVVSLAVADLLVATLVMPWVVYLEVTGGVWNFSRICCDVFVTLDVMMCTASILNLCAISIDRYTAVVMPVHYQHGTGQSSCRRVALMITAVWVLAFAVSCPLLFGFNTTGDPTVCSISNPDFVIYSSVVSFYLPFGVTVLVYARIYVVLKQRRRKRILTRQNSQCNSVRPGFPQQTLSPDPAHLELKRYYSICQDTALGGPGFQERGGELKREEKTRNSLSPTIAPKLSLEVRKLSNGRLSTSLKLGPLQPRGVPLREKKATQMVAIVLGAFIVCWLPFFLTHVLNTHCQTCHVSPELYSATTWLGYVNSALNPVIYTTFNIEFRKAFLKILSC

## Clc1cccc(COc2cncc(N3CCNCC3)n2)c1 [CP-809,101]
[1]
  cocaine self-administration and/or reinstatement: decrease cocaine self-administration and/or inhibit the reinstatement of a response previously reinforced by cocaine

## Clc1cncc(N2CCNCC2)n1 [MK 212]
[1]
  cocaine self-administration and/or reinstatement: decrease cocaine self-administration and/or inhibit the reinstatement of a response previously reinforced by cocaine

## C[C@H](N)Cn1ccc2cc(F)c(Cl)cc21 [Ro 60-0175]
[1]
  cocaine self-administration and/or reinstatement: decrease cocaine self-administration and/or inhibit the reinstatement of a response previously reinforced by cocaine

## c1cc2c3c(c1)[C@H]1CCC[C@H]1N3CCNC2 [WAY-163909]
[1]
  cocaine self-administration and/or reinstatement: decrease cocaine self-administration and/or inhibit the reinstatement of a response previously reinforced by cocaine

## O=C1CC2(CCCC2)CC(=O)N1CCCCN1CCN(c2ncccn2)CC1 [buspirone]
[2]
  effect on PR responding for cocaine (reinforcing effectiveness of cocaine): inhibited responding in a dose-dependent manner; also recorded: dose-dependently decreases the reinforcing effectiveness of cocaine
[2]; PR schedule, 2 male and 2 female monkeys, more potent in males
  potency in males relative to females at decreasing cocaine self-administration: ~10 fold
[3]
  effectiveness of cocaine to reinstate extinguished responding for cocaine: dose-dependently decreases
[4]
  effectiveness on cocaine self-administration with daily dosing: retain their effectiveness to reduce cocaine self-administration
[5]
  selective binding profile at DA D3 receptors: 5-70 fold
[5]; recent studies
  relative potency at 5-HT1A, DA D3, and DA D4 receptors: roughly equipotent
[6]; 30 mg
  reinforcing effects of cocaine in a human laboratory study: failed to alter the reinforcing effects of cocaine
[7]; 60 mg dose
  sex-related difference in promoting abstinence: more effective at promoting abstinence in males than in females
[7]; 60 mg
  abstinence from cocaine use, multi-site randomized double-blind placebo-controlled pilot study: failed to prolong abstinence from cocaine use
[8]
  dose needed for clinically relevant DA D3 receptor occupancy relative to 60 mg maximal approved dose: at least 3 fold
[9]
  cocaine self-administration in monkeys (literature): reliably decreased cocaine self-administration
[10]
  cardiovascular complications: devoid of serious cardiovascular complications

## CN1CCc2cc(Cl)c(O)cc2[C@H]2c3ccccc3CC[C@@H]21 [ecopipam]
[6]; doses that did not produce sedation
  subjective or reinforcing effects of cocaine in humans: failed to alter the subjective or reinforcing effects of cocaine

## C[C@@H](Cc1ccccc1)NC(=O)[C@@H](N)CCCCN [lisdexamfetamine]
[7]; doses approved to treat ADHD
  cocaine abstinence in a clinical setting: often ineffective at improving cocaine abstinence
[9]
  cocaine self-administration in monkeys (literature): consistently reduce cocaine self-administration

## C[C@H]1CNCCc2ccc(Cl)cc21 [lorcaserin]
[2]
  effect on PR responding for cocaine (reinforcing effectiveness of cocaine): inhibited responding in a dose-dependent manner; also recorded: dose-dependently decreases the reinforcing effectiveness of cocaine
[2]; PR schedule, 2 male and 2 female monkeys, females more sensitive
  sensitivity of females relative to males: ~3 fold
[3]
  effectiveness of cocaine to reinstate extinguished responding for cocaine: dose-dependently decreases
[4]; acute administration
  cocaine self-administration under fixed ratio and PR schedules (earlier report of the inventors): dose-dependently inhibits cocaine self-administration
[4]
  effectiveness on cocaine self-administration with daily dosing: retain their effectiveness to reduce cocaine self-administration
[4]; repeated (daily) treatment
  persistence of anti-cocaine effects: at least 14 days
[11]; [16]
  selectivity for 5-HT2C over 5-HT2A receptors: ~20 fold
[11]; in vitro testing
  selectivity over the 5-HT2A receptor: 17 ×
[12]; [16]
  selectivity for 5-HT2C over 5-HT2B receptors: ~100 fold
[12]; in vitro testing
  selectivity for (5-HT)2C versus 5-HT2B receptor: 100 ×
[13]
  weight loss: modest, but sustained weight loss
[14]
  subjective effects of supra-therapeutic doses: subjective ratings of “high”, “good drug effects” and “hallucination”
[15]
  head-twitches: produces 5-HT2A receptor-mediated head-twitches
[10]
  cardiovascular complications: devoid of serious cardiovascular complications

## Clc1cccc(N2CCNCC2)c1 [mCPP, meta-chlorophenylpiperazine]
[1]
  cocaine self-administration and/or reinstatement: decrease cocaine self-administration and/or inhibit the reinstatement of a response previously reinforced by cocaine
